The text below walks through data of patent publication US20250195513A1, “DEGRADATION OF IRAK4 BY CONJUGATION OF IRAK4 INHIBITORS WITH E3 LIGASE LIGAND AND METHODS OF USE” (BeiGene, Ltd., priority 2022, published 2025).

The test addresses T1, IRAK4 (Homo sapiens, UniProt Q9NWZ3).
T1 construct: endogenous in cells; host or cells: Karpas299
T1 sequence (Q9NWZ3 1-460): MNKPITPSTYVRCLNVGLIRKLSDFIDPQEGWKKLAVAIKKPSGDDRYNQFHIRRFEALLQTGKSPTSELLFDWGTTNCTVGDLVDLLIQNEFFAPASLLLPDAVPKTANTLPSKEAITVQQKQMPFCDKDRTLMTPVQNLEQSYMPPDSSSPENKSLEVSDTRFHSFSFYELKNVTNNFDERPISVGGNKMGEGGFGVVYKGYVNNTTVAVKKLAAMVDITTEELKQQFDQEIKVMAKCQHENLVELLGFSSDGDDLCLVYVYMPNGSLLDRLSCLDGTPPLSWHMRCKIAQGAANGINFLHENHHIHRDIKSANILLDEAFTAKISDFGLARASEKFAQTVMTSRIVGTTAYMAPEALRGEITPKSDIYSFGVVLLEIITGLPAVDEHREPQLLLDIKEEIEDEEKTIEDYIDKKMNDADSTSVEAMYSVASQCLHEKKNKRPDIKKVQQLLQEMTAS
The experiment in a line: IRAK4 Degradation Assay (Karpas299, HTRF/TR-FRET). In kind it is cell-based. In short, it runs like this:
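Karpas299 cells at 0.2 million per well were exposed to serially diluted compounds for 24 h or 5 h, then lysed. IRAK4 remaining in lysates was quantified by HTRF (665/620 nm) after overnight antibody incubation at room temperature. Percent degradation was fitted to a four-parameter curve to give IC50 (DC50).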
For orientation: Time-resolved FRET reads energy transfer from a long-lived donor to a nearby acceptor.

Where [1] appears, read: Karpas-299 cells, 5 h treatment, maximum percentage of degradation, read-out: IRAK4 in Karpas-299 (5 h) Dmax (%).
[2] abbreviates: Karpas-299 cells, 5 h treatment, read-out: IRAK4 in Karpas-299 (5 h) DC50.
Where [3] appears, read: Karpas-299 cells, 24 h treatment, maximum percentage of degradation, read-out: IRAK4 in Karpas-299 (24 h) Dmax (%).
The mark [4] stands for this setting: Karpas-299 cells, 24 h treatment, read-out: IRAK4 in Karpas-299 (24 h) DC50.

Like-named read-outs stand apart in the source and are kept apart here.

On to `O=C1CCN(c2c(F)cc(N3CC(C(=O)N4CCN([C@H]5CC[C@H](n6cc(NC(=O)c7cnn(-c8ccnc(NCC9CC9)c8)n7)c(C(F)F)n6)CC5)CC4)C3)cc2F)C(=O)N1` [Example 61, 2-(2-((cyclopropylmethyl)amino)pyridin-4-yl)-N-(3-(difluoromethyl)-1-((1r,4r)-4-(4-(1-(4-(2,4-dioxotetrahydropyrimidin-1(2H)-yl)-3,5-difluorophenyl)azetidine-3-carbonyl)piperazin-1-yl)cyclohexyl)-1H-pyrazol-4-yl)-2H-1,2,3-triazole-4-carboxamide], for which the Dmax – broadly, the greatest extent of degradation seen – stood at 86% under setting [1] and 96% under setting [3]. Further, the DC50 (usually the midpoint of the concentration-degradation curve) was 24 nM under setting [2] and 5 nM under setting [4].

`Cc1cc(-c2nc(C(=O)Nc3cn(-c4ccc(N5CCN(C(=O)C6CN(c7ccc(N8CCC(=O)NC8=O)cc7)C6)CC5)nc4)nc3C(N)=O)co2)ccn1` [Example 31, N-(3-carbamoyl-1-(6-(4-(1-(4-(2,4-dioxotetrahydropyrimidin-1(2H)-yl)phenyl)azetidine-3-carbonyl)piperazin-1-yl)pyridin-3-yl)-1H-pyrazol-4-yl)-2-(2-methylpyridin-4-yl)oxazole-4-carboxamide]: the Dmax came out at 89% under setting [1] and 96% under setting [3]. The 50% degradation concentration (DC50) reads like this: under setting [2], 8.2 nM; under setting [4], 5.8 nM.

For `NC(=O)c1nn([C@H]2CC[C@H](N3CCN(C(=O)C4CN(c5ccc(N6CCC(=O)NC6=O)cc5)C4)CC3)CC2)cc1NC(=O)c1coc(-c2ccnc(NCC(F)(F)F)c2)n1` [Example 8, N-(3-carbamoyl-1-((1r,4r)-4-(4-(1-(4-(2,4-dioxotetrahydropyrimidin-1(2H)-yl)phenyl)azetidine-3-carbonyl)piperazin-1-yl)cyclohexyl)-1H-pyrazol-4-yl)-2-(2-((2,2,2-trifluoroethyl)amino)pyridin-4-yl)oxazole-4-carboxamide], the Dmax under setting [3] was 97%. Also, under setting [4], the DC50 was determined as 2.1 nM.

With `COc1cc2nn([C@H]3CC[C@H](N4CCN(C(=O)[C@@H]5CCN(c6ccc(N7CCC(=O)NC7=O)cc6)C5)CC4)CC3)cc2cc1NC(=O)c1cccc(C(F)(F)F)n1` [Example 164, N-(2-((1R,4r)-4-(4-((R)-1-(4-(2,4-dioxotetrahydropyrimidin-1(2H)-yl)phenyl)pyrrolidine-3-carbonyl)piperazin-1-yl)cyclohexyl)-6-methoxy-2H-indazol-5-yl)-6-(trifluoromethyl)picolinamide], the DC50 by setting is: (Degradation (Karpas-299), comparison table, Linker Type B, read-out: Compound (Linker Type B) DC50) 2 nM; under setting [4], 2 nM. Further, the Dmax amounted to 97% (Degradation (Karpas-299), comparison table, Linker Type B, read-out: Compound (Linker Type B) Dmax (%)) and 97% under setting [3].

`O=C1CC[C@H](c2c(F)cc(N3CC[C@@H](C(=O)N4CCN([C@H]5CC[C@H](n6cc7cc(NC(=O)c8cccc(C(F)(F)F)n8)c(C(=O)N[C@H]8C[C@H](CO)C8)cc7n6)CC5)CC4)C3)cc2F)C(=O)N1` [Example 168, 2-((1R,4R)-4-(4-((R)-1-(4-((R)-2,6-dioxopiperidin-3-yl)-3,5-difluorophenyl)pyrrolidine-3-carbonyl)piperazin-1-yl)cyclohexyl)-N-((1r,3R)-3-(hydroxymethyl)cyclobutyl)-5-(6-(trifluoromethyl)picolinamido)-2H-indazole-6-carboxamide]: the Dmax is, setting by setting: under setting [1], 87%; under setting [3], 100%. The half-maximal degradation concentration (DC50) came to 5.2 nM under setting [2] and 1.3 nM under setting [4].

Turning to `O=C1CC[C@H](c2c(F)cc(N3CC[C@@H](C(=O)N4CCN([C@H]5CC[C@H](n6cc(NC(=O)c7coc(-c8ccnc(NCC9CC9)c8)n7)c(C(F)F)n6)CC5)CC4)C3)cc2F)C(=O)N1` [Example 26, 2-(2-((cyclopropylmethyl)amino)pyridin-4-yl)-N-(3-(difluoromethyl)-1-((1R,4r)-4-(4-((R)-1-(4-((R)-2,6-dioxopiperidin-3-yl)-3,5-difluorophenyl)pyrrolidine-3-carbonyl)piperazin-1-yl)cyclohexyl)-1H-pyrazol-4-yl)oxazole-4-carboxamide], the Dmax under setting [3] was determined as 99%. Besides, the 50% degradation concentration (DC50) under setting [4] stood at 2.2 nM.

For `NC(=O)c1nn([C@H]2CC[C@H](N3CCN(C(=O)C4CN(c5cc(F)c([C@H]6CCC(=O)NC6=O)c(F)c5)C4)CC3)CC2)cc1NC(=O)c1coc(-c2ccnc(NCC(F)(F)F)c2)n1` [Example 11, N-(3-carbamoyl-1-((1r,4r)-4-(4-(1-(4-((R)-2,6-dioxopiperidin-3-yl)-3,5-difluorophenyl)azetidine-3-carbonyl)piperazin-1-yl)cyclohexyl)-1H-pyrazol-4-yl)-2-(2-((2,2,2-trifluoroethyl)amino)pyridin-4-yl)oxazole-4-carboxamide], the Dmax was found to be 94% under setting [1] and 97% under setting [3]. Further, the DC50 is, setting by setting: under setting [2], 2.4 nM; under setting [4], 1.6 nM.

For the compound `CC(C)(O)c1cc2nc(C3CCN(C4CCN(C(=O)[C@@H]5CCN(c6cc(F)c([C@H]7CCC(=O)NC7=O)c(F)c6)C5)CC4)CC3)cn2cc1NC(=O)c1cccc(C(F)(F)F)n1` [Example 127, N-(2-(1′-((R)-1-(4-((R)-2,6-dioxopiperidin-3-yl)-3,5-difluorophenyl)pyrrolidine-3-carbonyl)-[1,4′-bipiperidin]-4-yl)-7-(2-hydroxypropan-2-yl)imidazo[1,2-a]pyridin-6-yl)-6-(trifluoromethyl)picolinamide], the Dmax came to 94% under setting [1] and 102% under setting [3]. Also, the 50% degradation concentration (DC50) reads like this: under setting [2], 12 nM; under setting [4], 1.3 nM.

Turning to `CC(C)(O)c1cc2nn(C34CCC(N5CCN(C(=O)C6CN(c7cc(F)c([C@H]8CCC(=O)NC8=O)c(F)c7)C6)CC5)(CC3)CC4)cc2cc1NC(=O)c1ccc2cc(C#N)cnn12` [Example 149, (R)-3-cyano-N-(2-(4-(4-(1-(4-(2,6-dioxopiperidin-3-yl)-3,5-difluorophenyl)azetidine-3-carbonyl)piperazin-1-yl)bicyclo[2.2.2]octan-1-yl)-6-(2-hydroxypropan-2-yl)-2H-indazol-5-yl)pyrrolo[1,2-b]pyridazine-7-carboxamide], under setting [3], the Dmax is 97%. Besides, under setting [4], the DC50 was found to be 0.3 nM.

As for `CC(C)(O)c1cc2nn(C3CCN([C@@H]4CCN(C(=O)C5CN(c6cc(F)c([C@H]7CCC(=O)NC7=O)c(F)c6)C5)CC4(F)F)CC3)cc2cc1NC(=O)c1ccc2cc(C#N)cnn12` [Example 288, 3-cyano-N-(2-((R)-1′-(1-(4-((R)-2,6-dioxopiperidin-3-yl)-3,5-difluorophenyl)azetidine-3-carbonyl)-3′,3′-difluoro-[1,4′-bipiperidin]-4-yl)-6-(2-hydroxypropan-2-yl)-2H-indazol-5-yl)pyrrolo[1,2-b]pyridazine-7-carboxamide], the Dmax under setting [3] amounted to 96%. Further, the 50% degradation concentration (DC50) under setting [4] was 2.3 nM.

For `O=C1CC[C@H](c2c(F)cc(N3CC(CN4CCN([C@H]5CC[C@H](n6cc(NC(=O)c7coc(-c8ccnc(NCC(F)(F)F)c8)n7)c(C(F)F)n6)CC5)CC4)C3)cc2F)C(=O)N1` [Example 19, N-(3-(difluoromethyl)-1-((1r,4r)-4-(4-((1-(4-((R)-2,6-dioxopiperidin-3-yl)-3,5-difluorophenyl)azetidin-3-yl)methyl)piperazin-1-yl)cyclohexyl)-1H-pyrazol-4-yl)-2-(2-((2,2,2-trifluoroethyl)amino)pyridin-4-yl)oxazole-4-carboxamide], under setting [3], the Dmax was found to be 95%. For the same compound, the DC50 under setting [4] came out at 1 nM.

Take `CC(C)(O)c1cc2nc(C3CCN(C4CN(C(=O)[C@@H]5CCN(c6cc(F)c([C@H]7CCC(=O)NC7=O)c(F)c6)C5)C4)CC3)cn2cc1NC(=O)c1cccc(C(F)(F)F)n1` [Example 50, N-(2-(1-(1-((R)-1-(4-((R)-2,6-dioxopiperidin-3-yl)-3,5-difluorophenyl)pyrrolidine-3-carbonyl)azetidin-3-yl)piperidin-4-yl)-7-(2-hydroxypropan-2-yl)imidazo[1,2-a]pyridin-6-yl)-6-(trifluoromethyl)picolinamide]: the Dmax under setting [1] came to 78% and the Dmax under setting [3] was determined as 94%. Further, the DC50 runs as follows: under setting [2], 2.2 nM; under setting [4], 1.5 nM.

Consider `O=C1CCN(c2ccc(N3CC[C@H](C(=O)N4CCN([C@H]5CC[C@H](n6cc(NC(=O)c7coc(-c8ccnc(NCC(F)(F)F)c8)n7)c(C(F)F)n6)CC5)CC4)C3)cc2)C(=O)N1` [Example 15, N-(3-(difluoromethyl)-1-((1S,4r)-4-(4-((S)-1-(4-(2,4-dioxotetrahydropyrimidin-1(2H)-yl)phenyl)pyrrolidine-3-carbonyl)piperazin-1-yl)cyclohexyl)-1H-pyrazol-4-yl)-2-(2-((2,2,2-trifluoroethyl)amino)pyridin-4-yl)oxazole-4-carboxamide], for which the Dmax under setting [3] stood at 30%. The half-maximal degradation concentration (DC50) under setting [4] is more than 10000 nM.
